Reference: patent US20260076983A1, “CANNABINOIDS COMPOSITIONS WITH POLYUNSATURATED FATTY ACID MONOGLYCERIDES AS A SPECIFIC COX-2 INHIBITOR, METHODS AND USES THEREOF” (SCF PHARMA INC., priority 2022, published 2026)

Target: T1, COX-2 enzyme (Homo sapiens, UniProt P35354)
T1 construct: PGE2 levels in lipopolysaccharide (LPS)-challenged human whole blood; from tissue; host or cells: human whole blood (heparin tube) from one volunteer, LPS-challenged ex vivo
T1 sequence (P35354 18-604): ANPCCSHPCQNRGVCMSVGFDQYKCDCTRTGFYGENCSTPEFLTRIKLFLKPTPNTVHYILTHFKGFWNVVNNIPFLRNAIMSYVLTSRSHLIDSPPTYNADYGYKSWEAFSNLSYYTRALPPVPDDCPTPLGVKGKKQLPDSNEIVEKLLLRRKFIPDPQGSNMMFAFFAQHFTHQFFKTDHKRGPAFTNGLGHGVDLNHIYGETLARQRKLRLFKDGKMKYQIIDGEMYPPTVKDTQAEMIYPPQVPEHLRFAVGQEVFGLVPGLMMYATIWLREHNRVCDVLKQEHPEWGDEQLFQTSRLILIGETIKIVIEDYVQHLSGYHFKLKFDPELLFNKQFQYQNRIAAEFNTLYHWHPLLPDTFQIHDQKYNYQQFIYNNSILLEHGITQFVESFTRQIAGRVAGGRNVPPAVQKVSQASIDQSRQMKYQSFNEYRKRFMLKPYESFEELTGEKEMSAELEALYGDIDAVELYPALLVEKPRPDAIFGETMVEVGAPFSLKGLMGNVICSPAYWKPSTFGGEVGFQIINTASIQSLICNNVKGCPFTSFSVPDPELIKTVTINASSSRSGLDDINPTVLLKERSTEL
Test: PGE2 levels in LPS-challenged human whole blood after oral capsules (human case study)
Type: in vivo
Details: cross-over, blood 3.5 h after dosing
Experimental: 200 mg of cannabidiol (CBD) dissolved in 2.0 g of MCT oil, 2.0 g of compound of formula (IV) alone and 200 mg of cannabidiol (CBD) dissolved in 2.0 g of compound of formula (IV) were separately encapsulated in four (4) hard gel capsules (size 00) for a cross over COX-2 case study. A pilot cross-over case study was conducted in one volunteer over a three (3) week periods with one experiment per week. In the morning of the experiment, 10 ml of blood was collected in heparin tube from the volunteer fasted for 10 h. The four (4) hard gel capsules were swallowed with a glass of water and blood collection was repeated after 3.5 h. PGE2 levels in lipopolysaccharide (LPS)-challenged human whole blood was measured as biochemical index for cyclooxygenase COX-2 activity (Brideau C, Kargman S, Liu S, Dallob A L, Ehrich E W, Rodger I W, Chan C C. A human whole blood assay for clinical evaluation of biochemical efficacy of cyclooxygenase inhibitors. Inflamm Res. 1996 February; 45(2):68-74. doi: 10.1007/BF02265118. PMID: 8907587).
100 mg of cannabidiol (CBD) dissolved in 2.0 g of compound of formula (IV) was encapsulated in four (4) hard gel capsules (size 00) for COX-1 and COX-2 case study. A pilot case study was conducted in one volunteer. In the morning of the case study, 20 ml of blood was collected (1×10 ml serum tube and 1×10 ml heparin tube) from the volunteer fasted for 10 h. […]

## CC/C=C\C/C=C\C/C=C\C/C=C\C/C=C\CCCC(=O)OCC(O)CO (centres unmarked) [compound of formula (IV)]
Example 1, one volunteer, oral hard gel capsules, 200 mg CBD in 2.0 g MCT oil, 2.0 g compound of formula (IV) alone, 200 mg CBD in 2.0 g compound of formula (IV)
  inhibition of the COX-2 enzyme: 10%
Example 3, one volunteer, 2.0 g compound of formula (IV), oral capsules
  inhibition of the COX-2 enzyme (in words): mild inhibition
